± gives the expanded uncertainty stated by the source.
Assays:
[1] = Crystal; DTA
[2] = Molar enthalpy of transition or fusion; details: Crystal; DSC

Row | Normal melting temperature [1] [°C] | Molar enthalpy of transition or fusion [2] [kcal/mol] | SMILES
1 | 204.00 ± 1.5 | 8.38 ± 0.182 | O=C(O)c1cccnc1Nc1cccc(C(F)(F)F)c1
2 | 171.00 ± 0.88 | 7.26 ± 0.16 | O=C(O)c1ccccc1Nc1cccc(Cl)c1Cl [clofenamic acid]
3 | 214.00 ± 1.1 | 7.52 ± 0.165 | Cc1c(Cl)cccc1Nc1ccccc1C(=O)O [2-[(3-chloro-2-methylphenyl)amino]benzoic acid]
